Data on two molecules can be found in patent US20240124445A1, “BENZENE RING COMPOUND AND USE THEREOF” (NANJING SHIJIANG MEDICINE TECHNOLOGY CO., LTD, priority 2020, published 2024).

Series [1] is described as follows: Stability in human liver microsome. In kind it is in vitro ADME. To be noted: liver microsomes, pH 7.4, 1.5 μM drug solution, NADPH, 37° C., read-out: Human T1/2. As for the experimental part:
Vortexing for 10 min, the sample was centrifuged with 5594×g for 15 min in centrifuger (Thermo Multifuge×3R). • 10) taking 50 μL supernatant from the centrifuged sample, transferred to 96 well sample plate contain 50 μL water, mixed, and the sample was analyzed using LC-MS/MS.
(In general: Microsomes from liver hold many membrane-bound enzymes, among them those of drug oxidation.)

In series [2] the test system is NCI-H82 cell. The series can be described thus: Cell viability (Promega CellTiter-Glo) of NCI-H82 cell. To be noted: Homo sapiens. The class given is cell-based. As for the experimental part: Cell viability was detected using the Promega CellTiter-Glo kit, the kit reflected cell viability by directly measuring intracellular ATP content. Small cell lung cancer cell NCI-H82 (ATCC, No. HTB-175) was cultured in 10% fetal bovine serum-containing RPMI1640 medium (+P/S).
Cell viability was detected using the Promega CellTiter-Glo kit, the kit reflected cell viability by directly measuring intracellular ATP content.
Daoy cell was cultured in 10% fetal bovine serum-containing DMEM medium (+P/S), and NCI-H82 cell was cultured in 10% fetal bovine serum-containing RPMI1640 medium (+P/S).
(§1) Cell viability was detected using the Promega CellTiter-Glo kit, the kit reflected cell viability by directly measuring intracellular ATP content. In the experiment, the IC50 value of different compounds on different tumor cell lines was detected to determine cell lines that were sensitive or insensitive to different compounds.
(§2) Tumor cells were cultured in 10% FBS-containing medium (+p/s), and incubated for 3 h or the following day, then the gradient diluted compound was added. After 3 days of culture, the relevant IC50 (50% inhibiting concentration) was measured. The name, source and culture conditions of each tumor cell line were as follows:
Cell line NCI-H82 (ATCC, No. HTB-175) was cultured in 10% fetal bovine serum-containing RPMI1640 medium (+P/S).
For orientation: Cellular ATP, detected with luciferase, serves as a proxy for viable cell number.

In series [3] the test system is MDA-MB-453. Nature of the series: Cell viability (CellTiter-Glo) of MDA-MB-453. The class given is cell-based. To be noted: Homo sapiens. As for the experimental part:
(§3) Cell viability was detected using the Promega CellTiter-Glo kit, the kit reflected cell viability by directly measuring intracellular ATP content. Different cancer cells was cultured in medium, the 50% inhibiting concentration (IC50) of compound AB24852 on cancer cells was determined using Promega CellTiter-Glo kit. The name, source and culture conditions of each tumor cell line were as follows:
Cell line MDA-MB-453 (ATCC, No. HTB-131) was cultured in 10% fetal bovine serum-containing Leibovitz's L-15 medium (+P/S).
as §1
(§4) Tumor cells were cultured in 10% FBS-containing medium (+p/s), and incubated for 3 h or the following day, then the gradient diluted compound was added. After 3 days of culture, the relevant IC50 (50% inhibiting concentration) was measured. The name, source and culture conditions of each tumor cell line were as follows: […]

Series [4] relates to SU-DHL-2. Nature of the series: Cell viability (CellTiter-Glo) of SU-DHL-2. The class given is cell-based. To be noted: Homo sapiens; SU-DHL-2, lymphoma. As for the experimental part:
as §3
Cell line SU-DHL-2 (ATCC, No. CRL-2956) was cultured in 10% fetal bovine serum-containing RPMI1640 medium (+P/S).

Series [5] relates to SF-126. Nature of the series: Cell viability (CellTiter-Glo) of SF-126. The class given is cell-based. Conditions: Homo sapiens, 72 h; SF-126, 3 days of culture. As for the experimental part: as §1, §4
For series [6], the system named is GB-1. The series can be described thus: Cell viability (CellTiter-Glo) of GB-1. In kind it is cell-based. Conditions: Homo sapiens, 72 h; GB-1, 3 days of culture. As for the experimental part: as §1, §2
Cell line GB-1 (JCRB, No. IF050489) was cultured in 10% fetal bovine serum-containing DMEM medium (+P/S).

Series [7] has as its system OCI-AML-4. The series can be described thus: Cell viability (CellTiter-Glo) of OCI-AML-4. To be noted: OCI-AML-4, leukemia. In kind it is cell-based. As for the experimental part: as §3
Cell line OCI-AML-4 (DSMZ, No. ACC-729) was cultured in alpha-MEM medium containing 20% fetal bovine serum and 20% volume fraction of 5637 cell line adjusted medium (+P/S).

Series [8] relates to A-375. Nature of the series: Cell viability (CellTiter-Glo) of A-375. In kind it is cell-based. To be noted: Homo sapiens; A-375, melanoma. As for the experimental part: as §3
Cell line A-375 (ATCC, No. CRL-1619) was cultured in 10% fetal bovine serum-containing DMEM medium (+P/S).

In series [9] the test system is 22RV1. Nature of the series: Cell viability (CellTiter-Glo) of 22RV1. Conditions: Homo sapiens; 22RV1, prostatic cancer. The class given is cell-based. As for the experimental part:
as §3
Cell line 22RV1 (ATCC, No. CRL-2505) was cultured in 10% fetal bovine serum-containing RPMI1640 medium (+P/S).

Series [10] relates to G-401. Nature of the series: Cell viability (CellTiter-Glo) of G-401. In kind it is cell-based. Conditions: Homo sapiens. As for the experimental part: as §3
Cell line G-401 (ATCC, No. CRL-1441) was cultured in 10% fetal bovine serum-containing McCoy's 5a medium (+P/S).
as §1, §4

Series [11] relates to CFPAC-1. Nature of the series: Cell viability (CellTiter-Glo) of CFPAC-1. The class given is cell-based. To be noted: Homo sapiens, 72 h; CFPAC-1, 3 days of culture. As for the experimental part:
as §1, §2
Cell line CFPAC-1 (ATCC, No. CRL-1918) was cultured in 10% fetal bovine serum-containing IMDM medium (+P/S).

Series [12] relates to SNU-398. Nature of the series: Cell viability (CellTiter-Glo) of SNU-398. To be noted: Homo sapiens; SNU-398, liver cancer. The class given is cell-based. As for the experimental part: as §3
Cell line SNU-398 (ATCC, number CRL-2233) was cultured in 10% fetal bovine serum-containing RPMI1640 medium (+P/S).

In series [13] the test system is SW48. Nature of the series: Cell viability (CellTiter-Glo) of SW48. In kind it is cell-based. To be noted: Homo sapiens. As for the experimental part: as §3
Cell line SW48 (ATCC, No. CCL-231) was cultured in 10% fetal bovine serum-containing Leibovitz's L-15 medium (+P/S).
as §1, §4

Series [14] concerns MIA PaCa-2. Nature of the series: Cell viability (CellTiter-Glo) of MIA PaCa-2. The class given is cell-based. To be noted: Homo sapiens; MIA PaCa-2, pancreatic cancer. As for the experimental part:
as §3
Cell line MIA PaCa-2 (ATCC, No. CRL-1420) was cultured in 10% fetal bovine serum-containing DMEM medium (+P/S).

Series [15] relates to 786-O. Nature of the series: Cell viability (CellTiter-Glo) of 786-O. In kind it is cell-based. Conditions: Homo sapiens, 786-0, 72 h, 3 days of culture. As for the experimental part: as §1, §2
Cell line 786-0 (ATCC, No. CRL-1932) was cultured in 10% fetal bovine serum-containing RPMI1640 medium (+P/S).

In series [16] the test system is NCI-H1048. Nature of the series: Cell viability (CellTiter-Glo) of NCI-H1048. The class given is cell-based. Conditions: Homo sapiens; NCI-H1048, lung cancer. As for the experimental part: as §3
Cell line NCI-H1048 (ATCC, No. CRL-5853) was cultured in 5% fetal bovine serum-containing HITES medium (+P/S).

Series [17] relates to mitochondria permeability transition pore. Nature of the series: Mitochondria membrane potential difference by TMRM in Daoy cell. In kind it is cell-based, human. Conditions: H2O2 +, CsA none.
Series [18] shares this test system. Nature of the series: Mitochondria membrane potential difference by TMRM in NCI-H82 cell. The class given is cell-based, human. To be noted: H2O2 +, CsA none.

Where two headings read alike, the source gives them in different places.

`O=C(C[n+]1ccc(NCc2ccccc2)cc1)c1cccc([N+](=O)[O-])c1` [AB24852]: the half-life at 1 µM in series [1] is 1.78 h. The IC50 in series [2] (72 h, NCI-H82, 3 days of culture, Table 5, read-out: IC50 NCI-H82) was 1460 nM; in series [2] (NCI-H82 cell, Table 1, read-out: IC50), 1460 nM; in series [3] (72 h, MDA-MB-453, 3 days of culture, Table 5, read-out: IC50 MDA-MB-453), 220 nM; in [3] (MDA-MB-453, breast cancer, Table 2, read-out: IC50), 200 nM; in [4] it was 300 nM; in series [5], over 50000 nM. The IC50 was over 50000 nM in series [6]; 800 nM in series [7]; 1300 nM in series [8]; 2300 nM in series [9]; 1020 nM in [10] (72 h, G-401, 3 days of culture, Table 5, read-out: IC50 G-401); 1000 nM in series [10] (G-401, renal carcinoma, Table 2, read-out: IC50). The IC50 in [11] was over 50000 nM; in series [12], 1700 nM; in series [13] (72 h, SW48, 3 days of culture, Table 5, read-out: IC50 SW48) it was 720 nM; in [13] (SW48, intestine cancer, Table 2, read-out: IC50), 700 nM; in series [14] it was 700 nM; in series [15], over 50000 nM. In series [16], this molecule returned an IC50 of 1100 nM.

With `OO` [Compound H2O2], the “Relative TMRM signal intensity, mean value” in series [17] stood at 82%; in [18], 119%.

For orientation: IC50 means the concentration needed to halve the response being measured.
